Here are results for three compounds from ChEMBL document CHEMBL3797159, “The discovery and the structural basis of an imidazo[4,5-b]pyridine-based p21-activated kinase 4 inhibitor” (Bioorg Med Chem Lett, 2016).

Data set [1] deals with Aurora kinase B (Homo sapiens) (UniProt Q96GD4). In words: Inhibition of human recombinant Aurora-B expressed in sf9 cells using kemptide as substrate by radiometric assay in presence of gamma[32P]ATP.
For data set [2], the target named is DNA-dependent protein kinase catalytic subunit (Homo sapiens) (UniProt P78527). As to the kind of experiment: Inhibition of human DNA-PK by radiometric assay.
DNA-dependent protein kinase catalytic subunit (Homo sapiens), sequence (P78527 whole entry): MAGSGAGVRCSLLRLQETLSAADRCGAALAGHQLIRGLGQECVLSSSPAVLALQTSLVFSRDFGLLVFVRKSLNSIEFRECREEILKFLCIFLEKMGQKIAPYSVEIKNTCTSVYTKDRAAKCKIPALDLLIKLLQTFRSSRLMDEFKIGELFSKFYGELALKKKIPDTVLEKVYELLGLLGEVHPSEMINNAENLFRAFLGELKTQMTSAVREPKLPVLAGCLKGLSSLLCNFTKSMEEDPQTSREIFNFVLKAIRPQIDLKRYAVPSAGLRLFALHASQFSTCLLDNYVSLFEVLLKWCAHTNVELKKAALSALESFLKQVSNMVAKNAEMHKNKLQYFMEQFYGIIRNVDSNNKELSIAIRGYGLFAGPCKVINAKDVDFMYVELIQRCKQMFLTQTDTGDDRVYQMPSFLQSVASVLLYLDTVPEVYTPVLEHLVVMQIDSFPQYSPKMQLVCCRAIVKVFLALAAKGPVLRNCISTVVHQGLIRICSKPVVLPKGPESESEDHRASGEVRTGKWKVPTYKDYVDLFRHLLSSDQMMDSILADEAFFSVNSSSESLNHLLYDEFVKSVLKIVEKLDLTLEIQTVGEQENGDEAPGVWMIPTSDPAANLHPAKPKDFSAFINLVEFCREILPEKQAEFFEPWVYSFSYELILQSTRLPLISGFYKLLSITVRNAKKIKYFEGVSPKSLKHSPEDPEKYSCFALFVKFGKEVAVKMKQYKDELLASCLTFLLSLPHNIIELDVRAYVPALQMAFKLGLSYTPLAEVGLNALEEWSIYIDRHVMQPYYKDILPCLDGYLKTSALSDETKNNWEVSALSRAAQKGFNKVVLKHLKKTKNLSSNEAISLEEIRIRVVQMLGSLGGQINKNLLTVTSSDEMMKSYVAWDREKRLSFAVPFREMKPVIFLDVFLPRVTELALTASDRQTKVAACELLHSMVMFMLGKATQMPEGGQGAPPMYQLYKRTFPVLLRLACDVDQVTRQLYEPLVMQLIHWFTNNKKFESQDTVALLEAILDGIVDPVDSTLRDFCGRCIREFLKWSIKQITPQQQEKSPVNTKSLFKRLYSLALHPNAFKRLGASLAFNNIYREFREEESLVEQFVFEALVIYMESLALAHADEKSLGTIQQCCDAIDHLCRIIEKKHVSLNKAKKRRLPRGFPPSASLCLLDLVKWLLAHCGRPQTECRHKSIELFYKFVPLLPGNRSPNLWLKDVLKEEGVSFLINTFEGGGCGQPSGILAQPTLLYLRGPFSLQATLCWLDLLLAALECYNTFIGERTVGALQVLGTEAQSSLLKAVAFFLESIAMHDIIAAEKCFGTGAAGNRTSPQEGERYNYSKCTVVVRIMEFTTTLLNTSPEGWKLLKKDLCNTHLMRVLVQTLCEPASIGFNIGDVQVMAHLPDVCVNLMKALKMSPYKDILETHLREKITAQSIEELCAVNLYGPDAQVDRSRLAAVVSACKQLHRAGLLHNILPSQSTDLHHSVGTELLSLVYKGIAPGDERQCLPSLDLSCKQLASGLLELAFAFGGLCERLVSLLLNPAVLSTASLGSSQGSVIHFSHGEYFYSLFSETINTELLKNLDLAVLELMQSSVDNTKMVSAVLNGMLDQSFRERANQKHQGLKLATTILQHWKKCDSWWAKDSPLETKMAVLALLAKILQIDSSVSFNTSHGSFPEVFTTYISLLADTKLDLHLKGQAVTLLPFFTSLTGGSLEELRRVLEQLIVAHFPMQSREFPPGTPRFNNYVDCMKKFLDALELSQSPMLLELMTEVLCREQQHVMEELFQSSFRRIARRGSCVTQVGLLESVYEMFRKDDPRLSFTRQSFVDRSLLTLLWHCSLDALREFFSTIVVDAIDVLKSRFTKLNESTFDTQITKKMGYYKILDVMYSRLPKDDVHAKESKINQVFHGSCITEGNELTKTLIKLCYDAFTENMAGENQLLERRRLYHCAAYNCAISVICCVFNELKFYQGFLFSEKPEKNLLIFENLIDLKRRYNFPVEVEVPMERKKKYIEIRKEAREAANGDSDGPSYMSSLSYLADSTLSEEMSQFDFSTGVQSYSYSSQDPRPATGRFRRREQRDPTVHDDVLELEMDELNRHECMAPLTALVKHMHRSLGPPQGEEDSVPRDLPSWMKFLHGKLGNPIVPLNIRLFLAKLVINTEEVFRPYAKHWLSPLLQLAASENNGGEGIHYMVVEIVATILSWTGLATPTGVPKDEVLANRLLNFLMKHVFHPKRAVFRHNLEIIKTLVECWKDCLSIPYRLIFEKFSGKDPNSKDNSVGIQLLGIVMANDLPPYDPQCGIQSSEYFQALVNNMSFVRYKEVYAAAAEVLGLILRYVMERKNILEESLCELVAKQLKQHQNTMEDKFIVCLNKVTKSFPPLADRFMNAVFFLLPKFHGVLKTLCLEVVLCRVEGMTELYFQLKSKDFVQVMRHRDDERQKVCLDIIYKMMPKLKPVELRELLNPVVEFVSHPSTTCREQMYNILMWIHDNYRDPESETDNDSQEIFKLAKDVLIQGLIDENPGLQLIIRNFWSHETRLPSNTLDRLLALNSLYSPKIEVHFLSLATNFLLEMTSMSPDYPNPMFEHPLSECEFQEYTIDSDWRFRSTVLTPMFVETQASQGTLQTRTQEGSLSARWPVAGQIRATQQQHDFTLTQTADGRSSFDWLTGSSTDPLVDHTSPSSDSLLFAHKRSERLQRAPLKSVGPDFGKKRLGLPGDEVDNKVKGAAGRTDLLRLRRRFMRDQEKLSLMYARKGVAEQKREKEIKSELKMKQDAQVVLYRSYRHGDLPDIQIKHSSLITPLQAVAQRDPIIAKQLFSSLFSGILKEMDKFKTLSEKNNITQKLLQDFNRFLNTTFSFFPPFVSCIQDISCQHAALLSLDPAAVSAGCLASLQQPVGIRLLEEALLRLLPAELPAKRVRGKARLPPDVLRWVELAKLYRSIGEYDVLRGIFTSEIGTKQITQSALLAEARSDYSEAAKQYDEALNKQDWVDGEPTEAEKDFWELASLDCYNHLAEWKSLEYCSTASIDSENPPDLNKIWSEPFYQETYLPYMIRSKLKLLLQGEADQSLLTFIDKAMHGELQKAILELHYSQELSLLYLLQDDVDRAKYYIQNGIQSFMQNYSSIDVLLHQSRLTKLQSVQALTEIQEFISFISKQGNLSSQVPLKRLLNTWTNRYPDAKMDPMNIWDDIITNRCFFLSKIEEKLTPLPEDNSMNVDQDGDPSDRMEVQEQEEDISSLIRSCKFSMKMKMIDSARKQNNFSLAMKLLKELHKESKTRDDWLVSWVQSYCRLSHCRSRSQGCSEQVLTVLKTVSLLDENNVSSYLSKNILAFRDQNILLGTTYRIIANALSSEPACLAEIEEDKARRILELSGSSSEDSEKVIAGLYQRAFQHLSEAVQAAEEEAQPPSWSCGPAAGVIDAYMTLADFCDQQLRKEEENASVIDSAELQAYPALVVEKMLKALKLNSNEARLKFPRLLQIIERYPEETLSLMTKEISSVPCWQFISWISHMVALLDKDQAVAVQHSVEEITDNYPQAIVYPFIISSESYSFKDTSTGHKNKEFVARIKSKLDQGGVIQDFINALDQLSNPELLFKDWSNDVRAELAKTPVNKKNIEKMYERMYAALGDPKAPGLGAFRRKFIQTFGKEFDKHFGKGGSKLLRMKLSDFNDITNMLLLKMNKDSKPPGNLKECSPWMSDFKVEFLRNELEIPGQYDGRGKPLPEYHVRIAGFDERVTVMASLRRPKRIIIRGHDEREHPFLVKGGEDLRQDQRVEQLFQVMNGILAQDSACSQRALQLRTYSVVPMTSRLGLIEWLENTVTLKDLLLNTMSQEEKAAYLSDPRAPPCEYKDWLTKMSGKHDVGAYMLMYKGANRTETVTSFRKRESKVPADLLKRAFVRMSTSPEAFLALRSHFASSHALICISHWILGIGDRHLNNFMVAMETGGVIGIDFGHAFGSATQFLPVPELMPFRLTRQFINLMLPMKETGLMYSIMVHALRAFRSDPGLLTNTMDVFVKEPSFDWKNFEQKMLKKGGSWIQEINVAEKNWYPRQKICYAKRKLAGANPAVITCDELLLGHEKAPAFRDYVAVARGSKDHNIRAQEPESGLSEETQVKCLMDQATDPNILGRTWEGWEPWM
Data set [3] deals with T1, Dual specificity tyrosine-phosphorylation-regulated kinase 2 (Homo sapiens) (UniProt Q92630).
T1 sequence (whole entry): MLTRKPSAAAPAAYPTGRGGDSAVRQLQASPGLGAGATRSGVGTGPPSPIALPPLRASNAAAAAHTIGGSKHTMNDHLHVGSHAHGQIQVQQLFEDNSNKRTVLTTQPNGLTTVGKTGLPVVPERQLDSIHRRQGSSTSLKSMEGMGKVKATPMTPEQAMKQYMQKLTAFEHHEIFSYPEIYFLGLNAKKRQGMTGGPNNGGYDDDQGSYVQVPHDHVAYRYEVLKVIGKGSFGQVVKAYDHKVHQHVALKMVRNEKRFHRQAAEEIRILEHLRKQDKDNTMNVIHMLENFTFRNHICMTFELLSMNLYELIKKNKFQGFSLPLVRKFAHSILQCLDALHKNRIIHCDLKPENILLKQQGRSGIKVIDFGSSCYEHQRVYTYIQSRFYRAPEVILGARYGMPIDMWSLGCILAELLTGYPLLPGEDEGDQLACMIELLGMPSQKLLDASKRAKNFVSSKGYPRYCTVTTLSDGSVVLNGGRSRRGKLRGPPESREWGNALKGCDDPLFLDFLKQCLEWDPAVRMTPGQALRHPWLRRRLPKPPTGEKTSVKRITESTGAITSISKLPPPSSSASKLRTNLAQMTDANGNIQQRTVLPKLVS
In words: Inhibition of human DYRK2 by radiometric assay.

The nature of data set [4]: Solubility of compound. The class given is physicochemical.
Data set [5] concerns the target T2, Serine/threonine-protein kinase PAK 4 (Homo sapiens, UniProt O96013). In words: Inhibition of human PAK4 using myelin basic protein as substrate incubated for 40 mins by scintillation counting method in presence of gamma[33P]ATP.
Target sequence in this assay (O96013 whole entry): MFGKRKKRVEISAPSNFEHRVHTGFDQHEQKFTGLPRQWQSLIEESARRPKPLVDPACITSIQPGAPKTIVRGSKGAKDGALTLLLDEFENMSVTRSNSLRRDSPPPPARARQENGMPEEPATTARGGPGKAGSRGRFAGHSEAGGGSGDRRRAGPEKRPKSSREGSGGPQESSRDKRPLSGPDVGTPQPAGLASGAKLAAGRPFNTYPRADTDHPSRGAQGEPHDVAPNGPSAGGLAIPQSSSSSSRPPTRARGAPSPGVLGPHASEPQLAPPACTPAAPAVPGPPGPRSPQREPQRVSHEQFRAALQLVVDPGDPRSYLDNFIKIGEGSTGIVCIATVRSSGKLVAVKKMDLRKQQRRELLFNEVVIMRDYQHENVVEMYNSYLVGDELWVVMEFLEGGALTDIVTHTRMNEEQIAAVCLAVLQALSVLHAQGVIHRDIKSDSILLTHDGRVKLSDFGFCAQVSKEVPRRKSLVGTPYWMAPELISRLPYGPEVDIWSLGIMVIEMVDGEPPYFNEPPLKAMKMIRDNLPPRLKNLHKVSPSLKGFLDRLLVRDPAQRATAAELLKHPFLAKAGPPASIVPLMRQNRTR
In data set [6] the target is T2, Serine/threonine-protein kinase PAK 4. The conditions noted are these: 50 uM.
Target sequence in this assay (O96013 whole entry, looked up): as the sequence (O96013 whole entry) above
Description: Binding affinity to PAK4 (unknown origin) assessed as change in melting temperature at 50 uM by circular dichroism analysis
Data set [7] deals with T3, Aurora kinase C (Homo sapiens) (UniProt Q9UQB9).
T3 sequence (whole entry): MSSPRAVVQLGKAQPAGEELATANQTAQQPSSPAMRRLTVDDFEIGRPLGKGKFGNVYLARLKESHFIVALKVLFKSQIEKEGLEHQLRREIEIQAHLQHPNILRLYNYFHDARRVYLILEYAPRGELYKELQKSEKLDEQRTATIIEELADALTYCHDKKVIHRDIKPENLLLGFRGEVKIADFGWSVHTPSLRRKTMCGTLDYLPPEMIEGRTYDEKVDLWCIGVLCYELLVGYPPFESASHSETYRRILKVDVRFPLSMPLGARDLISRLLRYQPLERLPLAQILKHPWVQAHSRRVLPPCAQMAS
As to the kind of experiment: Inhibition of human Aurora-C by radiometric assay.

The target of data set [8] is CDK4/Cyclin D3 (Homo sapiens) (UniProt P11802+P30281). In words: Inhibition of human recombinant CDK4/Cyclin D3 expressed in sf21 cells using Rb (773 to 928 residues) as substrate by radiometric assay in presence of gamma[32P]ATP.
Data set [9] addresses T2, Serine/threonine-protein kinase PAK 4. As to the kind of experiment: Binding affinity to recombinant human N-terminal His6-tagged PAK4 kinase domain (300 to 591 residues) expressed in Escherichia coli BL21(DE3) cells at 50 uM by circular dichroism analysis. A general note: CD spectra are sensitive to the conformation of chiral molecules.
Target sequence in this assay (O96013 whole entry, looked up): as the sequence (O96013 whole entry) above

Calls of active or inactive are those of the source. The rule behind the calls is not given here.

Aurora kinase B (Homo sapiens), sequence (Q96GD4 whole entry): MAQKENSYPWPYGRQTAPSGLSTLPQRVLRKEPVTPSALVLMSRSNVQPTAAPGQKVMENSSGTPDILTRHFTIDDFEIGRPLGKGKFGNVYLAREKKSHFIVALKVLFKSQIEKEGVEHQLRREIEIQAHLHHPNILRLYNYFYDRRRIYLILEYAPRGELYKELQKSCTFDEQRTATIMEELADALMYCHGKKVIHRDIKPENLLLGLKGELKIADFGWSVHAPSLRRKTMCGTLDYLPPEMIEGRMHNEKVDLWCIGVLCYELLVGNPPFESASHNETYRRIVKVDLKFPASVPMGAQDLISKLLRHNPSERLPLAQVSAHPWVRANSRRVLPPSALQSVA

Regarding `CC(C)c1nn(C)cc1-c1nc2cc(Br)cnc2[nH]1`, the inhibition result in [1] and in [7] was “Active” in each case. Moreover, the inhibition entry in data set [2], in [3] and in data set [8] was “inactive” throughout. In [4], the solubility was < 100 µM. Further, the IC50 in data set [5] turned out to be 8.7 µM. Also, in [6], the Tm stood at 48 °C.

With `Cc1nc(Nc2n[nH]c3c2CN(C(=O)N[C@H](CN(C)C)c2ccccc2)C3(C)C)c2sccc2n1`, the ΔTm in data set [9] was 16 °C.

Take `COc1nc(NCCc2c[nH]c3ccccc23)nc(Nc2ccc3[nH]ncc3c2)n1`: in data set [9], the ΔTm stood at 6 °C.

As a reminder, the solubility is the dissolved amount per volume that the medium holds. High values mean much dissolved substance, low ones little dissolved substance. By IC50 is commonly meant the concentration that inhibits the measured activity by half. Usually ΔTm stands for the change in melting temperature against a reference sample.
